Source: patent publication US20210277009A1, “PRMT5 INHIBITORS” (Merck Sharp & Dohme Corp., priority 2018, published 2021)
Like-named read-outs stand apart in the source and are kept apart here.

How the values were obtained:
[1] = target: T1, PRMT5-MEP50 enzyme complex (Homo sapiens, UniProt O14744); test: PRMT5-MEP50 Enzyme Methylation Assay; assay type: biochemical
T1 construct: 1.25 nM of Full-length (FL)-PRMT5-MEP50 enzyme complex; made in house; host or cells: baculovirus-transfected Sf21 cells
Experimental: PRMT5-MEP50 biochemical assay is a direct measurement of the methylation activity of the enzyme complex on a short peptide substrate derived from the N-terminus of H4 histone. Methylation experiment is performed with recombinant PRMT5-MEP50 protein complex. The assessment of inhibitory effect of small molecules is measured by tire effectiveness of the compounds to inhibit tins reaction (EC50).
In this assay, the potency (EC50) of each compound was determined from a twenty-point (1:2 serial dilution; top compound concentration of 100000 nM) titration curve using the following outlined procedure. To each well of a white ProxiPlus 384 well-plate, 100 nL of compound (1% DMSO in final assay volume of 10 μL) was dispensed, followed by the addition of 8 μL of 1× assay buffer (50 mM Bicine pH 8.0, 1 mM DTT, 0.004% Tween20, 0.01% BSA) containing 1.25 nM of Full-length (FL)-PRMT5-MEP50 enzyme complex (recombinant proteins from baculovirus-transfected Sf21 cells: FL-PRMT5; MW=[…] and FL-MEP50; MW=38614) and 1 μL of 150 μM S-(5′-Adenosyl)-L-Methionine Chloride (SAM). Plates were sealed and placed in a 37° C. humidified chamber for a 60 minutes pre-incubation with compound. Subsequently, each reaction was initiated by the addition of 1 μL 1× assay buffer containing 750 nM biotinylated H4R3(Mel) peptide. The final reaction in each well of 10 μL consists of 1.0 nM PRMT5-MEP50, 75 nM biotinylated-peptide, and […] SAM. Methylation reactions were allowed to proceed for 150 minutes in a sealed plate at 37° C. Reactions were immediately quenched by the addition of 1 μL of 5% formic acid. Plates were then frozen and shipped to SAMDITM Tech Inc. to determine the percent conversion from H4R3(Mel) to H4R3(Me2). Dose-response curves were generated by plotting percent effect (% product conversion; Y-axis) vs. Log 10 compound concentrations (X-axis). EC50 values were determined by non-linear regression according to models for either sigmoidal (4 parameters) or biphasic (7 parameters) dose-response curves.

[2] = system: symmetric dimethylation of arginine (SDMA) of PRMT5 substrates in MCF-7 cells; test: PRMT5 Cell Target Engagement (TE) Assay; assay type: cell-based; details: Homo sapiens, MCF7, 72 h, treated for 3 days, nuclear SDMA by high content imaging, top concentration 10000 nM
Excerpt: The PRMT5 TE assay is a biomarker assay for identifying compounds that inhibit symmetric dimethylation of arginine (SDMA) of PRMT5 substrates. The following substrates have been reported for PRMT5: histone H2A and H4 R3, Histone H3 R2, Histone H3 R8, spliceosome Sm proteins, ribosomal protein RPS10, p53, FEN1, nudeoplasmin, nucleolin, EGFR and EBNA. The assay will focus on detecting symmetrically dimethylated nuclear proteins using high content imaging technology. Detection of the expression of symmetrically dimethylated nuclear proteins is through a mixture of primary rabbit monoclonal antibodies to SDMA (CST 13222), which in turn recognized by an Alexafluor 488 dye-conjugated anti-rabbit IgG secondary antibody. The IN Cell Analyzer 2200 or Opera-Phenix measures nuclear Alexafluor 488 fluorescent dye intensity that is directly related to the level of expression of symmetrically dimethylated nuclear proteins at the single cell level. Nuclear AF488 dye intensities are compared to the mean value for DMSO treated cells (MIN) to report percent of inhibition for each compound-treated well.
In this assay, the cell potency (EC50) of each compound was determined from a ten point (1:3 serial dilution; top compound concentration of 10000 nM) titration curve using the following outlined procedure. Each well of a BD falcon collagen coated black/clear bottom 384-well plate was seeded with 4000 MCF-7 cells in 30 μl media and allowed to attach for 5 h. Media is ATCC-formulated Eagle's Minimum Essential Medium, Catalog No. 30-2003. To make the complete growth medium, the following components were added to the base medium: 0.01 mg/ml human recombinant insulin; fetal bovine serum to a final concentration of 10%. Additional 30 μl of media containing 2× compounds were added to each well. Cells were treated for 3 days in 37° C. CO2 incubator. On day 3, cells were fixed with Cytofix, permeablized with 0.4% Triton-X-100/Cytofix, and washed with D-PBS without Ca/Mg. Cells were blocked with Licor Odessey blocking reagent for 1 h at room temperature, followed by incubation with anti-SDMA (1:1000) antibody at 4° C. overnight. 1° antibody was removed, followed by three washings with DPBS without Ca/Mg and 0.05% Tween20. Hoechst (5 μg/ml), Cell Mask deep stain (1:2000) and Alexa488-conjugated goat anti-rabbit IgG (2 μg/mL) was added for 1 hour at room temperature. A final washing step (three washes) was performed before sealing plate for imaging on In Cell Analyzer 2200 or Opera-Phenix. Images from analyzer were uploaded to Columbus (at WP or BOS) for image analysis. IC50 values were determined by 4 parameters robust fit of percent fluorescence units vs. (Logic) compound concentrations.

[3] = second EC50 of 7 parameters biphasic model, read-out: Enzyme Methylation Assay (EC50_2)
[4] = single EC50 from 4 parameters single site sigmoidal model, or first EC50 of 7 parameters biphasic model, 1.0 nM PRMT5-MEP50, H4R3(Me1) peptide, SAM, read-out: Enzyme Methylation Assay (EC50 or EC50_1)

T1 sequence (O14744 whole entry): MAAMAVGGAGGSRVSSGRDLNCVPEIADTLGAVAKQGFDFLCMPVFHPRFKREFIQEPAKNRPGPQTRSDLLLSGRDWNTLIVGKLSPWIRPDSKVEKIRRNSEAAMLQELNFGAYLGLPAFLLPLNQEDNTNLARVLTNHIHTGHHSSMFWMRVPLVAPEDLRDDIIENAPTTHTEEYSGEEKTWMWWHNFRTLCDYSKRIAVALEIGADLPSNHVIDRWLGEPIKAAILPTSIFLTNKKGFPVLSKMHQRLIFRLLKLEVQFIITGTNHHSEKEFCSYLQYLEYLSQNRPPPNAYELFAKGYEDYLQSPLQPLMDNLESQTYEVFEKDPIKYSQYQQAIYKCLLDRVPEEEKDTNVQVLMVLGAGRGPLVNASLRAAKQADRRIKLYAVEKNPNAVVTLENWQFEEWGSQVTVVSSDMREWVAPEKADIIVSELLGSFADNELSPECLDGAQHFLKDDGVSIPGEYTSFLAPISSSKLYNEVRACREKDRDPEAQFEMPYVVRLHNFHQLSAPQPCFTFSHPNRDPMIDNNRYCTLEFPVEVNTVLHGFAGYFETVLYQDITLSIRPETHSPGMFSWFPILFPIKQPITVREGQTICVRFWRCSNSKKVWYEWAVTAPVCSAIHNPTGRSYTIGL
T1 sequence (Q9BQA1 whole entry partner): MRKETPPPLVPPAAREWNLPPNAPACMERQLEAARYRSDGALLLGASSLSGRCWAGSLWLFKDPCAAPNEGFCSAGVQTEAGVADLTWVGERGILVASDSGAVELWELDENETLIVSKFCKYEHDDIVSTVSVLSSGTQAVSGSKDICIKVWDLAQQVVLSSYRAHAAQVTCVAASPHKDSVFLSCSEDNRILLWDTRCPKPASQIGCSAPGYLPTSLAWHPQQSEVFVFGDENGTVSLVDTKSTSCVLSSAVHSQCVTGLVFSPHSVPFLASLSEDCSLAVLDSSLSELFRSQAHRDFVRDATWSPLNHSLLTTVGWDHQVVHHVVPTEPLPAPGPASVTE

## Cc1ncnc2c1ccn2[C@@H]1S[C@H](CCc2ccc3cc(C(F)(F)F)c(N)nc3c2)[C@@H](O)[C@H]1O [Example 20, (2R,3S,4R,5R)-2-{2-[2-amino-3-(triflnoromethyl)quinolin-7-yl]ethyl}-5-(4-methyl-7H-pyrrolo[2,3-d]pyrimidin-7-yl)tetrahydrothionhene-3,4-diol]
[1]; [3]
  EC50: 120 nM
[1]; [4]
  EC50: 0.7 nM
[2]
  EC50: 741 nM

## C[C@]1(COc2ccc3cc(Br)c(N)nc3c2)S[C@@H](n2ccc3c(Cl)ncnc32)[C@H](O)[C@@H]1O [Example 6, (2R,3S,4R,5R)-2-(((2-amino-3-bromoquinolin-7-yl)oxy)methyl)-5-(4-chloro-7H-pyrrolo[2,3-d]pyrimidin-7-yl)-2-methyltetrahydrothiophene-3,4-diol]
[1]; [4]
  EC50: 9.8 nM
[2]
  EC50: 1130 nM

## Cc1cc2ccc(CC[C@@H]3S[C@@H](n4ccc5c(C)ncnc54)[C@H](O)[C@@H]3O)cc2nc1N (single isomer, unassigned) [Example 29]
[1]; [4]
  EC50: 0.6 nM
[2]
  EC50: 0.9 nM

## Cc1nc(N)c2ccn([C@@H]3S[C@H](CCc4ccc5cc(Br)c(N)nc5c4)[C@@H](O)[C@H]3O)c2n1 [Example 35, (2R,3R,4S,5R)-2-(4-amino-2-methyl-7H-pyrrolo[2,3-d]pyrimidin-7-yl)-5-(2-(2-amino-3-bromoquinolin-7-yl)ethyl)tetrahydrothiophene-3,4-diol]
[1]; [4]
  EC50: 1.7 nM
[2]
  EC50: 35.6 nM

## CNc1ncnc2c1ccn2[C@@H]1S[C@H](CCc2ccc3cc(Br)c(N)nc3c2)[C@@H](O)[C@H]1O [Example 36]
[1]; [3]
  EC50: 15.3 nM
[1]; [4]
  EC50: 0.6 nM
[2]
  EC50: 81.1 nM

## Cc1ncnc2c1ccn2[C@@H]1S[C@@H](CCc2ccc3cc4c(nc3c2)NC(C)C4)[C@@H](O)[C@H]1O (single isomer, unassigned) [Example 40, (2S,3S,4R,5R)-2-(2-((S or R)-2-methyl-2,3-dihydro-1H-pyrrolo[2,3-b]quinolin-7-yl)ethyl)-5-(4-methyl-7H-pyrrolo[2,3-d]pyrimidin-7-yl)tetrahydrothiophene-3,4-diol]
[1]; [4]
  EC50: 57.9 nM

## Nc1ccc2ccc(CC[C@@H]3S[C@@H](n4ccc5c(N)ncnc54)[C@H](O)[C@@H]3O)cc2n1 [Example 15, (2R,3R,4S,5S)-2-(4-amino-7H-pyrrolo[2,3-d]pyrimidin-7-yl)-5-(2-(2-aminoquinolin-7-yl)ethyl)tetrahydrothiophene-3,4-diol]
[1]; [4]
  EC50: 0.9 nM
[2]
  EC50: 1.4 nM

## Cc1cn([C@@H]2S[C@H](CCc3ccc4cc(Br)c(N)nc4c3)[C@@H](O)[C@H]2O)c2ncnc(N)c12 [Example 34, (2R,3S,4R,5R)-2-(2-(2-amino-3-bromoquinolin-7-yl)ethyl)-5-(4-amino-5-methyl-7H-pyrrolo[2,3-d]pyrimidin-7-yl)tetrahydrothiophene-3,4-diol]
[1]; [3]
  EC50: 151 nM
[1]; [4]
  EC50: 0.5 nM
[2]
  EC50: 29.1 nM

## Nc1nc2cc(OC[C@H]3S[C@@H](n4ccc5c(N)ncnc54)[C@H](O)[C@@H]3O)ccc2cc1F [Example 3, 7-[5-O-(2-amino-3-fluoroquinolin-7-yl)-4-thio-beta-D-ribofuranosyl]-7H-pyrrolo[2,3-d]pyrimidin-4-amine]
[1]; [3]
  EC50: 902 nM
[1]; [4]
  EC50: 6 nM
[2]
  EC50: 596 nM

## Cc1ncnc2c1ccn2[C@@H]1S[C@H](CCc2ccc3cc(Cl)c(N)nc3c2)[C@@H](O)[C@H]1O [Example 24]
[1]; [4]
  EC50: 1.5 nM
[2]
  EC50: 17.4 nM

## Nc1nc2cc(OC[C@H]3S[C@@H](n4ccc5c(N)ncnc54)[C@H](O)[C@@H]3O)ccc2cc1Cl [Example 2, 7-[5-O-(2-amino-3-chloroquinolin-7-yl)-4-thio-beta-D-ribofuranosyl]-7H-pyrrolo[2,3-d]pyrimidin-4-amine]
[1]; [3]
  EC50: 200 nM
[1]; [4]
  EC50: 2.2 nM
[2]
  EC50: 112 nM

## Cc1ncnc2c1ccn2[C@@H]1S[C@H](CCc2ccc3cc(Br)c(N)nc3c2)[C@@H](O)[C@H]1O [Example 18, (2R,3S,4R,5R)-2-(2-(2-amino-3-bromoquinolin-7-yl)ethyl)-5-(4-methyl-7H-pyrrolo[2,3-d]pyrimidin-7-yl)tetrahydrothiophene-3,4-diol]
[1]; [4]
  EC50: 2.2 nM
[2]
  EC50: 5 nM

## Cc1ncnc2c1ccn2[C@@H]1S[C@H](CCc2ccc3ccc(N)nc3c2)[C@@H](O)[C@H]1O [Example 17]
[1]; [4]
  EC50: 0.4 nM
[2]
  EC50: 0.6 nM

## Cc1ncnc2c1ccn2[C@@H]1S[C@@H](CCc2ccc3cc(Cl)c(N)nc3c2)[C@@H](O)[C@H]1O [Example 25, (2S,3S,4R,5R)-2-[2-(2-amino-3-chloroquinolin-7-yl)ethyl]-5-(4-methy1-7H-pyrrolo[2,3-d]pyrimidin-7-yl)tetrahydrothiophene-3,4-diol]
[1]; [4]
  EC50: 1.3 nM
[2]
  EC50: 8.4 nM

## Cc1ncnc2c1ccn2[C@@H]1S[C@H](CCc2ccc3cc(F)c(N)nc3c2)[C@@H](O)[C@H]1O [Example 22, (2R,3S,4R,5R)-2-[2-(2-amino-3-fluoroquinolin-7-yl)ethyl]-5-(4-methyl-7H-pyrrolo[2,3-d]pyrimidin-7-yl)tetrahydrodrothiophene-3,4-diol]
[1]; [4]
  EC50: 10.1 nM
[2]
  EC50: 5.9 nM

## CNc1ncnc2c1ccn2[C@@H]1S[C@](C)(CCc2ccc3cc(Br)c(N)nc3c2)[C@@H](O)[C@H]1O [Example 33, (2R,3S,4R,5R)-2-(2-(2-amino-3-bromoquinolin-7-yl)ethyl)-2-methyl-5-(4-(methylamino)-7H-pyrrolo[2,3-d]pyrimidin-7-yl)tetrahydrothiophene-3,4-diol]
[1]; [4]
  EC50: 0.8 nM
[2]
  EC50: 13.5 nM

## Nc1nc2cc(CC[C@@H]3S[C@@H](n4ccc5c(N)ncnc54)[C@H](O)[C@@H]3O)ccc2cc1Cl [Example 42, (2S,3S,4R,5R)-2-(2-(2-amino-3-chloroquinolin-7-yl)ethyl)-5-(4-amino-7H-pyrrolo[2,3-d]pyrimidin-7-yl)tetrahydrothiophene-3,4-diol]
[1]; [4]
  EC50: 0.8 nM
[2]
  EC50: 2.4 nM

## Cc1ncnc2c1ccn2[C@@H]1S[C@@H](CCc2ccc3cc(Br)c(N)nc3c2)[C@@H](O)[C@H]1O [Example 19]
[1]; [3]
  EC50: 50.1 nM
[1]; [4]
  EC50: 0.4 nM
[2]
  EC50: 8.4 nM

## Nc1nc2cc(OC[C@H]3S[C@@H](n4ccc5c(N)ncnc54)[C@H](O)[C@@H]3O)ccc2cc1Br [Example 1, (2R,3S,4R,5R)-2-(((2-amino-3-bromoquinolin-7-yl)oxy)methyl)-5-(4-amino-7H-pyrrolo[2,3-d]pyrimidin-7-yl)tetrahydrothiophene-3,4-diol]
[1]; [3]
  EC50: 76.7 nM
[1]; [4]
  EC50: 0.3 nM
[2]
  EC50: 208 nM
